# Reference: patent US20020028469A1, “Method of defining genus of chemical compound and method of designing molecules” (priority 1997, published 2002)
# What was measured:
# PDEIV = PDEIV inhibition (IC50); format: biochemical; details: PDEIV inhibitory activity
# [1] = Solubility in aqueous solution, noted during coupling; format: physicochemical; details: methanol used as solvent instead
# Procedure: 1: 6 mg Compound C was dissolved in 2 ml methanol in 50 ml centrifuge tube (methanol was used because Compound C is insoluble in aqueous solution).
Structure (SMILES),IC50 (PDEIV),solubility in aqueous solution [1]
"CCNc1ncn(Cc2ccc(OC)c(OC3CCCC3)c2)c2nc(C(C)C)nc1-2 [Compound A, 3-(3-cyclopentyloxy-4-methoxybenzyl)-6-ethylamino-8-isopropyl-purine]",410 nM,–
"COc1ccc(Cn2cncc3nc(C(C)C)nc2-3)cc1OC1CCCC1 [Compound C, 3-(3-cyclopentyloxy-4-methoxybenzyl)-8-isopropyl-3H-purine]",800 nM,insoluble
"COc1ccc(C2CNC(=O)C2)cc1OC1CCCC1 (stereo not shown) [rolipram, reference compound]",3000 nM,–
